The results in this text go back to US9745283B2, “Uracil derivatives as AXL and c-MET kinase inhibitors” (priority 2011, dated 2017).

In assay [1] the target is recombinant human baculovirus-expressed cMET (Homo sapiens (Human), UniProt P08581). Kind of assay: C-MET Kinase Assay (HTRF KinEASE). Type of assay: biochemical. Particulars: average of two or more determinations; read-out: c-MET IC50. In outline: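 HTRF KinEASE format with recombinant human baculovirus-expressed cMET at 8 ng/mL, biotinylated peptide at 0.1 μM and ATP at 0.02 μM. IC50 came from percent control activity versus log concentration, fitted by nonlinear regression to a variable-slope sigmoidal equation with bottom fixed at 0 and top at 100.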

Assay [2] deals with recombinant human baculovirus-expressed AXL (Homo sapiens (Human), UniProt P30530). Kind of assay: AXL Kinase Assay (HTRF KinEASE). Type of assay: biochemical. Particulars: average of two or more determinations.

On to `COc1cc2nccc(Oc3ccc(NC(=O)c4nn(CCO)c(=O)n(-c5ccc(F)cc5)c4=O)cc3F)c2cc1OC` [Example 108, 4-(4-Fluorophenyl)-2-(2-hydroxyethyl)-3,5-dioxo-2,3,4,5-tetrahydro-[1,2,4]triazine-6-carboxylic acid [4-(6,7-dimethoxyquinolin-4-yloxy)-3-fluorophenyl]-amide], for which the half-maximal inhibitory concentration (IC50) in assay [1] and in assay [2] was < 0.01 µM in each case.
Turning to `COc1cc2nccc(Oc3ccc(NC(=O)c4cn(CC(=O)N(C)C)c(=O)n(-c5ccc(F)cc5)c4=O)cc3F)c2cc1OC` [Example 83, 1-Dimethylcarbamoylmethyl-3-(4-fluorophenyl)-2,4-dioxo-1,2,3,4-tetrahydro-pyrimidine-5-carboxylic acid [4-(6,7-dimethoxy-quinolin-4-yloxy)-3-fluorophenyl]-amide], the IC50 is 0.01 to 0.1 µM in assay [1] and < 0.01 µM in assay [2].
Consider `COc1cc2nccc(Oc3ccc(NC(=O)c4cn(C[C@H](O)CO)c(=O)n(-c5ccc(F)cc5)c4=O)cc3F)c2cc1OC` [Example 54, 1-((S)-2,3-Dihydroxypropyl)-3-(4-fluorophenyl)-2,4-dioxo-1,2,3,4-tetrahydropyrimidine-5-carboxylic acid [4-(6,7-dimethoxyquinolin-4-yloxy)-3-fluorophenyl]-amide], for which the figures for the IC50 in assay [1] and in assay [2] were 0.01 to 0.1 µM and < 0.01 µM, respectively.
Taken in the same sequence, the figures for `COc1cc2nccc(Oc3ccc(NC(=O)c4cn(Cc5ccccc5)c(=O)n(-c5ccc(F)cc5)c4=O)cc3F)c2cc1OC` [Example 77, 1-Benzyl-3-(4-fluoro-phenyl)-2,4-dioxo-1,2,3,4-tetrahydro-pyrimidine-5-carboxylic acid [4-(6,7-dimethoxy-quinolin-4-yloxy)-3-fluoro-phenyl]-amide] were 0.01 to 0.1 µM and < 0.01 µM.
In the same order, the values of `COc1cc2nccc(Oc3ccc(NC(=O)c4cn(C)c(=O)n(-c5ccc(F)cc5)c4=O)cc3F)c2cc1OC` [Example 2, 3-(4-Fluorophenyl)-1-methyl-2,4-dioxo-1,2,3,4-tetrahydropyrimidine-5-carboxylic acid [4-(6,7-dimethoxyquinolin-4-yloxy)-3-fluoro-phenyl]-amide] are < 0.01 µM and < 0.01 µM.
As to `CCn1nc(C(=O)Nc2ccc(Oc3ccnc4cc(OC)ccc34)c(F)c2)c(=O)n(-c2ccc(F)cc2)c1=O` [Example 171, 2-Ethyl-4-(4-fluoro-phenyl)-3,5-dioxo-2,3,4,5-tetrahydro-1,2,4-triazine-6-carboxylic acid [3-fluoro-4-(7-methoxy-quinolin-4-yloxy)-phenyl]-amide], the IC50 in assay [1] and in assay [2] was < 0.01 µM in each case.
On to `COc1cc2nccc(Oc3ccc(NC(=O)c4cn(CCn5ccnc5)c(=O)n(-c5ccc(F)cc5)c4=O)cc3F)c2cc1OC` [Example 62, 3-(4-Fluoro-phenyl)-1-(2-imidazol-1-yl-ethyl)-2,4-dioxo-1,2,3,4-tetrahydro-pyrimidine-5-carboxylic acid [4-(6,7-dimethoxy-quinolin-4-yloxy)-3-fluoro-phenyl]-amide], for which the 50% inhibitory concentration (IC50) in assay [1] and in assay [2] was < 0.01 µM in each case.
Take `CCCn1cc(C(=O)Nc2ccc(Oc3ccnc4cc(OC)c(OC)cc34)c(F)c2)c(=O)n(-c2ccc(F)cc2)c1=O` [Example 11, 3-(4-Fluorophenyl)-2,4-dioxo-1-propyl-1,2,3,4-tetrahydropyrimidine-5-carboxylic acid [4-(6,7-dimethoxyquinolin-4-yloxy)-3-fluorophenyl]-amide]: the IC50 was 0.01 to 0.1 µM in assay [1] and < 0.01 µM in assay [2].
In the case of `COc1cc2nccc(Oc3ccc(NC(=O)c4cn(Cc5ncco5)c(=O)n(-c5ccc(F)cc5)c4=O)cc3F)c2cc1OC` [Example 72, 3-(4-Fluoro-phenyl)-1-oxazol-2-ylmethyl-2,4-dioxo-1,2,3,4-tetrahydro-pyrimidine-5-carboxylic acid [4-(6,7-dimethoxy-quinolin-4-yloxy)-3-fluoro-phenyl]-amide], the IC50 is 0.01 to 0.1 µM in assay [1] and < 0.01 µM in assay [2].
Taken in the same sequence, the figures for `CC(C)n1nc(C(=O)Nc2ccc(Oc3ccnc4cc5c(cc34)OCCO5)c(F)c2)c(=O)n(-c2ccc(F)cc2)c1=O` [Example 106, 4-(4-Fluorophenyl)-2-isopropyl-3,5-dioxo-2,3,4,5-tetrahydro-[1,2,4]triazine-6-carboxylic acid [4-(2,3-dihydro-[1,4]dioxino[2,3-g]quinolin-9-yloxy)-3-fluorophenyl]-amide] were 0.01 to 0.1 µM and < 0.01 µM.
Regarding `COc1cc2nccc(Oc3ccc(NC(=O)c4cn(CCCOCc5ccccc5)c(=O)n(-c5ccc(F)cc5)c4=O)cc3)c2cc1OC` [Example 21, 1-(3-Benzyloxypropyl)-3-(4-fluorophenyl)-2,4-dioxo-1,2,3,4-tetrahydropyrimidine-5-carboxylic acid [4-(6,7-dimethoxyquinolin-4-yloxy)phenyl]-amide], the IC50 is 0.01 to 0.1 µM in assay [1] and < 0.01 µM in assay [2].
As for `COc1cc2nccc(Oc3ccc(NC(=O)c4nn(C(C)C)c(=O)n(-c5ccc(F)cc5)c4=O)cc3F)c2cc1OC` [Example 103, 4-(4-Fluoro-phenyl)-2-isopropyl-3,5-dioxo-2,3,4,5-tetrahydro-[1,2,4]triazine-6-carboxylic acid [4-(6,7-dimethoxy-quinolin-4-yloxy)-3-fluoro-phenyl]-amide], the IC50 is 0.01 to 0.1 µM in assay [1] and < 0.01 µM in assay [2].
In the same order, the values of `C#CCn1cc(C(=O)Nc2ccc(Oc3ccnc4cc(OC)c(OC)cc34)c(F)c2)c(=O)n(-c2ccc(F)cc2)c1=O` [Example 61, 3-(4-Fluoro-phenyl)-2,4-dioxo-1-prop-2-ynyl-1,2,3,4-tetrahydro-pyrimidine-5-carboxylic acid [4-(6,7-dimethoxy-quinolin-4-yloxy)-3-fluoro-phenyl]-amide] are < 0.01 µM and < 0.01 µM.
As to `C#CCn1nc(C(=O)Nc2ccc(Oc3ccnc4cc(OC)c(OC)cc34)c(F)c2)c(=O)n(-c2ccc(F)cc2)c1=O` [Example 113, 4-(4-Fluoro-phenyl)-3,5-dioxo-2-prop-2-ynyl-2,3,4,5-tetrahydro-[1,2,4]triazine-6-carboxylic acid [4-(6,7-dimethoxy-quinolin-4-yloxy)-3-fluoro-phenyl]-amide], the IC50 in assay [1] and in assay [2] was < 0.01 µM each time.
As for `COc1cc2nccc(Oc3ccc(NC(=O)c4cn(CCCO)c(=O)n(-c5ccc(F)cc5)c4=O)cc3F)c2cc1OC` [Example 50, 3-(4-Fluorophenyl)-1-(3-hydroxypropyl)-2,4-dioxo-1,2,3,4-tetrahydropyrimidine-5-carboxylic acid [4-(6,7-dimethoxyquinolin-4-yloxy)-3-fluorophenyl]-amide], the IC50 in assay [1] and in assay [2] was < 0.01 µM each time.
For `COc1cc2nccc(Oc3ccc(NC(=O)c4cn(CCF)c(=O)n(-c5ccc(F)cc5)c4=O)cc3F)c2cc1OC` [Example 69, 1-(2-Fluoro-ethyl)-3-(4-fluoro-phenyl)-2,4-dioxo-1,2,3,4-tetrahydro-pyrimidine-5-carboxylic acid [4-(6,7-dimethoxy-quinolin-4-yloxy)-3-fluoro-phenyl]-amide], the concentration for half-maximal inhibition (IC50) in assay [1] and in assay [2] was < 0.01 µM in each case.
As for `COc1cc2nccc(Oc3ccc(NC(=O)c4c[nH]c(=O)n(-c5ccc(F)cc5)c4=O)cc3C)c2cc1OC` [Example 149, 3-(4-Fluoro-phenyl)-2,4-dioxo-1,2,3,4-tetrahydro-pyrimidine-5-carboxylic acid [4-(6,7-dimethoxy-quinolin-4-yloxy)-3-methyl-phenyl]-amide], the IC50 in assay [1] and in assay [2] was < 0.01 µM each time.
For the compound `COc1cc2nccc(Oc3ccc(NC(=O)c4c[nH]c(=O)n(-c5ccc(F)cc5)c4=O)c(F)c3)c2cc1OC` [Example 85, 3-(4-Fluoro-phenyl)-2,4-dioxo-1,2,3,4-tetrahydro-pyrimidine-5-carboxylic acid [4-(6,7-dimethoxy-quinolin-4-yloxy)-2-fluoro-phenyl]-amide], the IC50 in assay [1] and in assay [2] was < 0.01 µM each time.
Turning to `COc1cc2nccc(Oc3ccc(NC(=O)c4cn(CCN5CCCC5=O)c(=O)n(-c5ccc(F)cc5)c4=O)cc3F)c2cc1OC` [Example 68, 3-(4-Fluoro-phenyl)-2,4-dioxo-1-[2-(2-oxo-pyrrolidin-1-yl)-ethyl]-1,2,3,4-tetrahydro-pyrimidine-5-carboxylic acid [4-(6,7-dimethoxy-quinolin-4-yloxy)-3-fluoro-phenyl]-amide], the IC50 in assay [1] and in assay [2] was < 0.01 µM throughout.
Take `COc1cc2nccc(Oc3ccc(NC(=O)c4cn(CCO)c(=O)n(-c5ccc(F)cc5)c4=O)cc3F)c2cc1OC` [Example 49, 3-(4-Fluorophenyl)-1-(2-hydroxyethyl)-2,4-dioxo-1,2,3,4-tetrahydropyrimidine-5-carboxylic acid [4-(6,7-dimethoxyquinolin-4-yloxy)-3-fluorophenyl]-amide]: the IC50 in assay [1] and in assay [2] was < 0.01 µM throughout.
For the compound `CCn1cc(C(=O)Nc2cc(F)c(Oc3ccnc4cc(OC)c(OC)cc34)c(F)c2)c(=O)n(-c2ccc(F)cc2)c1=O` [Example 90, 1-Ethyl-3-(4-fluoro-phenyl)-2,4-dioxo-1,2,3,4-tetrahydro-pyrimidine-5-carboxylic acid [4-(6,7-dimethoxy-quinolin-4-yloxy)-3,5-difluoro-phenyl]-amide], the IC50 in assay [1] is 0.01 to 0.1 µM; in assay [2], < 0.01 µM.
Take `CCn1cc(C(=O)Nc2ccc(Oc3ccnc4cc(OC)c(OC)cc34)cc2)c(=O)n(-c2ccc(F)cc2)c1=O` [Example 28, 1-Ethyl-3-(4-fluorophenyl)-2,4-dioxo-1,2,3,4-tetrahydropyrimidine-5-carboxylic acid [4-(6,7-dimethoxyquinolin-4-yloxy)-phenyl]-amide]: the IC50 in assay [1] and in assay [2] was < 0.01 µM throughout.
